# Measured values from patent US8431593B2, “Heteroaryl amide derivatives” (H. Lundbeck A/S, priority 2006, dated 2013).
# Target: T1, P2X7 receptor (Homo sapiens, UniProt Q99572)
# T1 construct: host or cells: SH-SY5Y
# T1 sequence (Q99572 1-595): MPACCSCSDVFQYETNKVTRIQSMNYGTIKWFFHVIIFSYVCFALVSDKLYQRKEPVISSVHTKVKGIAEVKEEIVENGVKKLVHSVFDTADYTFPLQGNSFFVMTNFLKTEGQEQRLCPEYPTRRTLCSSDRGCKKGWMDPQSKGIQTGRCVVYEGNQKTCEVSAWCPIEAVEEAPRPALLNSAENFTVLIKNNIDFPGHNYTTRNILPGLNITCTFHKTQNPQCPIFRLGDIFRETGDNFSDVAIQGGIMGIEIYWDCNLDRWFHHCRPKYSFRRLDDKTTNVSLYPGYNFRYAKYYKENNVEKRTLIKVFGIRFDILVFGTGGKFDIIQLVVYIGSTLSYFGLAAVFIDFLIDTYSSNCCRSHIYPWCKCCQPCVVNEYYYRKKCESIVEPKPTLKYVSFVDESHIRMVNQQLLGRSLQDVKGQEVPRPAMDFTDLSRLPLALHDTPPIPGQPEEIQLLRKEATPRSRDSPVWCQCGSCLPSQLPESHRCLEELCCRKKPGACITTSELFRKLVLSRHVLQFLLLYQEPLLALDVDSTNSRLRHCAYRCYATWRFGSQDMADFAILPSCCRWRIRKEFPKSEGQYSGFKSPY
# Assay: P2X7 calcium mobilization assay, high throughput, antagonist activity (Example 4A)
# Assay type: cell-based
# Conditions: not given
# Outline: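 Antagonism was measured as calcium mobilization on FLIPR^TETRA after a 1 h room-temperature compound preincubation of dye-loaded cells. Baseline from no-agonist wells was subtracted from each well's maximum RFU.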
row,Compound,IC50
1,"CCOC(=O)c1cnn(Cc2cn3c(C(=O)NCC45CC6CC(CC(C6)C4)C5)cccc3n2)c1 [Compound 204, ethyl 1-({5-[(adamantan-1-ylmethyl)carbamoyl]imi-dazo[1,2-a]pyridin-2-yl}methyl)-1H-pyrazole-4-carboxylate]",< 2 µM
2,"CC(C)N(CCO)Cc1cn2c(C(=O)NCC34CC5CC(CC(C5)C3)C4)cccc2n1 [Compound 132, N-(adamantan-1-ylmethyl)-2-{[(2-hydroxyethyl)(iso-propyl)amino]methyl}imi-dazo[1,2-a]pyridine-5-carboxamide]",< 2 µM

# Same assay, conditions: 50% decrease in the fluorescence response of cells exposed to 80 μM 2′(3′)-O-(4-benzoyl-benzoyl)adenosine 5′-triphosphate; Example 4A; read-out: IC50
row,Compound,IC50
1,"C[C@@H]1CNCCN1C(=O)c1cn2c(C(=O)NCC34CC5CC(CC(C5)C3)C4)cccc2n1 [Compound 600, N-(adamantan-1-ylmethyl)-2-{[(2R)-2-methylpiperazin-1-yl]carbonyl}imidazo[1,2-a]pyridine-5-carboxamide]",< 2 µM
2,CC1(C)[C@H]2CC[C@@H](CNC(=O)c3cccc4nc(C(=O)N5CCC(C(F)(F)F)CC5)cn34)[C@@H]1C2 [Compound 488],< 2 µM
3,"CC(=O)NC1CCN(C(=O)c2cn3c(C(=O)NC[C@@H]4CC[C@H]5C[C@@H]4C5(C)C)cccc3n2)C1 (stereo partly drawn) [Compound 457, 2-[(3-acetamidopyrrolidin-1-yl)carbonyl]-N-{[(1S,2R,5S)-6,6-dimethylbicyclo[3.1.1]hept-2-yl]methyl}imidazo[1,2-a]pyridine-5-carboxamide]",< 2 µM
4,"CC(C)[C@H]1CNCCN1C(=O)Cc1cn2c(C(=O)NC[C@@H]3CC[C@@H]4C[C@H]3C4(C)C)cccc2n1 [Compound 569, N-{[(1R,2R,5R)-6,6-dimethylbicyclo[3.1.1]hept-2-yl]methyl}-2-{2-[(2S)-2-isopropylpiperazin-1-yl]-2-oxoethyl}imidazo[1,2-a]pyridine-5-carboxamide]",< 2 µM

# Same assay, conditions: 50% decrease in the fluorescence response of cells exposed to 80 μM of 2′(3′)-O-(4-benzoyl-benzoyl)adenosine 5′-triphosphate; Example 4A; read-out: IC50
row,Compound,IC50
1,"CC(C)CC(CNC(=O)c1cccc2nc(Cn3ccccc3=O)cn12)c1cccnc1 (stereo not shown) [Compound 729, N-(4-methyl-2-pyridin-3-ylpentyl)-2-[(2-oxopyridin-1(2H)-yl)methyl] imidazo[1,2-a]pyridine-5-carboxamide]",< 2 µM
2,"CC(C)CC(CNC(=O)c1cccc2nc(CN3CC[C@@H](NC(=O)OC(C)(C)C)C3)cn12)C1CCCCC1 (stereo in doubt) [Compound 738, tert-butyl [1-({5-[(2-cyclohexyl-4-methylpentyl)carbamoyl]imidazo [1,2-a]pyridin-2-yl}methyl)pyrrolidin-3-yl]carbamate]",< 2 µM
3,"N[C@@H]1CCN(Cc2cn3c(C(=O)NCC(CC4CCCC4)c4ccccc4)cccc3n2)C1 (stereo partly shown) [Compound 786, 2-[(3-aminopyrrolidin-1-yl)methyl]-N-(3-cyclopentyl-2-phenylpropyl) imidazo[1,2-a] pyridine-5-carboxamide]",< 2 µM
4,"CCOC(=O)C(Cc1ccncc1)c1cn2c(C(=O)NCC34CC5CC(CC(C5)C3)C4)cccc2n1 (stereo not shown) [Compound 735, ethyl 2-{5-[(adamantan-1-ylmethyl)carbamoyl]imidazo[1,2-a]pyridin-2-yl}-3-pyridin-4-ylpropanoate]",< 2 µM
5,"CN1CCN(C)C(CN(C)C(=O)c2cn3c(C(=O)NCC45CC6CC(CC(C6)C4)C5)cccc3n2)C1 (stereo not shown) [Compound 706, 5-N-(adamantan-1-ylmethyl)-2-N-[(l,4-dimethylpiperazin-2-yl)methyl]-2-N-methylimidazo[1,2-a]pyridine-2,5-dicarboxamide]",< 2 µM

# Same assay, conditions: 50% decrease in the fluorescence response of cells exposed to 80 μM of 2′(3′)-O-(4-benzoyl-benzoyl)adenosine 5′-triphosphate; determined as in Example 4A; read-out: IC50
row,Compound,IC50
1,"CC(C)CC(CNC(=O)c1cccc2nc(CC(Cc3ccccc3)C(=O)O)cn12)c1ccc(Cl)cc1 (stereo not shown) [Compound 1007, 2-benzyl-3-(5-{[2-(4-chlorophenyl)-4-methylpentyl]carbamoyl}imidazo[1,2-a]pyridin-2-yl) propanoic acid]",< 2 µM
2,"CCCC(C(=O)O)c1cn2c(C(=O)NCC34CC5CC(CC(C5)C3)C4)cccc2n1 (stereo not shown) [Compound 909, 2-{5-[(adamantan-1-ylmethyl)carbamoyl]imidazo[1,2-a]pyridin-2-yl}pentanoic acid]",< 2 µM
3,"CN(C)C1CCCN(C(=O)Cc2cn3c(C(=O)NCC4(c5cccnc5)CCCCC4)cccc3n2)C1 (stereo not shown) [Compound 893, 2-{2-[3-(dimethylamino)piperidin-1-yl]-2-oxoethyl}-N-[(1-pyridin-3-ylcyclohexyl)methyl] imidazo[1,2-a] pyridine-5-carboxamide]",< 2 µM
4,"O=C(NCC12CC3CC(CC(C3)C1)C2)c1cccc2nc(C(=O)n3ccc(N4CCNC4=O)n3)cn12 [Compound 826, N-(adamantan-1-ylmethyl)-2-{[3-(2-oxoimidazolidin-1-yl)-1H-pyrazol-1-yl]carbonyl}imidazo [1,2-a]pyridine-5-carboxamide]",< 2 µM
5,"COC1CCN(C(=O)Cc2cn3c(C(=O)NCC4(c5cccnc5)CCCCC4)cccc3n2)CC1 [Compound 897, 2-[2-(4-methoxypiperidin-1-yl)-2-oxoethyl]-N-[(1-pyridin-3-ylcyclohexyl)methyl] imidazo[1,2-a] pyridine-5-carboxamide]",< 2 µM
6,"N[C@@H]1CCN(Cc2cn3c(C(=O)NCC4(c5ccc(Cl)cc5)CCOCC4)cccc3n2)C1 [Compound 910, 2-{[(3R)-3-aminopyrrolidin-1-yl]methyl}-N-{[4-(4-chlorophenyl)tetrahydro-2H-pyran-4-yl]methyl} imidazo[1,2-a] pyridine-5-carboxamide]",< 2 µM
7,"O=C(Cc1cn2c(C(=O)NCCc3ccccc3)cccc2n1)NCC12CC3CC(CC(C3)C1)C2 [Compound 972, 2-{2-[(adamantan-1-ylmethyl)amino]-2-oxoethyl}-N-(2-phenylethyl)imidazo[1,2-a]pyridine-5-carboxamide]",< 2 µM
8,"CCOC(=O)[C@@H]1CCCC[C@@H]1c1cn2c(C(=O)NCC34CC5CC(CC(C5)C3)C4)cccc2n1 (relative stereo) [Compound 996, ethyl rel-(1R,2S)-2-{5-[(adamantan-1-ylmethyl)carbamoyl]imidazo[1,2-a]pyridin-2-yl} cyclohexane-carboxylate]",< 2 µM

# Same assay, conditions: SH-SY5Y cells; 50% decrease in fluorescence response to 80 μM BzATP; read-out: IC50
row,Compound,IC50
1,"O=C(NCC12CC3CC(CC(C3)C1)C2)c1cccc2nc(CC(=O)N3CCCC(C(F)(F)F)C3)cn12 (stereo not shown) [Compound 174, N-(adamantan-1-ylmethyl)-2-{2-oxo-2-[3-(trifluoromethyl)piperidin-1-yl]ethyl}imidazo[1,2-a]pyridine-5-carboxamide]",< 2 µM
2,"CO[C@H]1CCN(C(=O)Cc2cn3c(C(=O)NCC45CC6CC(CC(C6)C4)C5)cccc3n2)C1 [Compound 175, N-(adamantan-1-ylmethyl)-2-{2-[(3S)-3-methoxypyrrolidin-1-yl]-2-oxoethyl}imidazo[1,2-a]pyridine-5-carboxamide]",< 2 µM
3,"O=C(NCC12CC3CC(CC(C3)C1)C2)c1cccc2nc(CC(=O)N3C[C@@H]4C[C@H]3CN4)cn12 [Compound 192, N-(adamantan-1-ylmethyl)-2-{2-[(1S,4S)-2,5-diazabicyclo[2.2.1]hept-2-yl]-2-oxoethyl}imidazo[1,2-a]pyridine-5-carboxamide]",< 2 µM

# Same assay, conditions: fluorescence response of cells exposed to 80 μM 2′(3′)-O-(4-benzoyl-benzoyl)adenosine 5′-triphosphate; Example 4A; read-out: IC50
row,Compound,IC50
1,"COC1CCN(C(=O)Cc2cn3c(C(=O)NCC(CC(C)C)c4ccccc4)cccc3n2)CC1 (stereo not shown) [Compound 239, 2-[2-(4-methoxypiperidin-1-yl)-2-oxoethyl]-N-(4-methyl-2-phenylpentyl)imidazo [1,2-a]pyridine-5-carboxamide]",< 2 µM
2,"CC(C)CC(CNC(=O)c1cccc2nc(CC(=O)N3CCCC3)cn12)c1ccccc1 (stereo not shown) [Compound 242, N-(4-methyl-2-phenylpentyl)-2-(2-oxo-2-pyrrolidin-1-ylethyl)imidazo[1,2-a]pyridine-5-carboxamide]",< 2 µM
3,"CC1(C)[C@H]2CC[C@@H](CNC(=O)c3cccc4nc(C(=O)N5C6CCC5CC(N)C6)cn34)[C@@H]1C2 (stereo partly drawn) [Compound 335, 2-[(3-amino-8-azabicyclo[3.2.1]oct-8-yl)carbonyl]-N-{[(1S,2R,5S)-6,6-dimethylbicyclo[3.1.1]hept-2-yl]methyl}imidazo[1,2-a]pyridine-5-carboxamide]",< 2 µM
4,"CC(C)CC(CNC(=O)c1cccc2nc(CC(=O)NCC(C)(C)C)cn12)c1ccccc1 (stereo not shown) [Compound 225, 2-{2-[(2,2-dimethylpropyl)amino]-2-oxoethyl}-N-(4-methyl-2-phenylpentyl) imidazo [1,2-a]pyridine-5-carboxamide]",< 2 µM
5,"O=C(O)c1ccc(=O)n(Cc2cn3c(C(=O)NCC45CC6CC(CC(C6)C4)C5)cccc3n2)c1 [Compound 350, 1-({5-[(adamantan-1-ylmethyl)carbamoyl]imidazo[1,2-a]pyridin-2-yl}methyl)-6-oxo-1,6-dihydropyridine-3-carboxylic acid]",< 2 µM
6,"O=C(NCC12CC3CC(CC(C3)C1)C2)c1cccc2nc(CN3CCC(F)(F)CC3)cn12 [Compound 290, N-(adamantan-1-ylmethyl)-2-[(4,4-difluoropiperidin-1-yl)methyl]imidazo[1,2-a]pyridine-5-carboxamide]",< 2 µM
